Laboratory results reported in patent US20260262643A1, “HERBICIDAL BENZOXAZINES” (FMC CORPORATION, priority 2022, published 2026).

What was measured:
blackgrass [1] = test: Test A preemergence; type: in vivo, Alopecurus myosuroides
How it was run: (§1)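 Seeds in loam–sand blend received a directed preemergence soil spray of compound in non-phytotoxic solvent with surfactant; postemergence plants (2–10 cm, one- to two-leaf stage) were sprayed with the same formulation. After 10 days in greenhouse, injury was rated visually versus untreated controls, 0 (no effect) to 100 (complete control).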

corn [2] = test: Test A preemergence; type: in vivo, Zea mays
How it was run: as §1

foxtail, giant [3] = test: Test A preemergence; type: in vivo, Setaria faberi
How it was run: as §1

goosegrass [4] = test: Test A preemergence; type: in vivo, Eleusine indica
How it was run: as §1

kochia [5] = test: Test A preemergence; type: in vivo, Bassia scoparia
How it was run: as §1

oat, wild [6] = test: Test A preemergence; type: in vivo, Avena fatua
How it was run: as §1

pigweed, palmer [7] = test: Test A preemergence; type: in vivo, Amaranthus palmeri
How it was run: as §1

ragweed [8] = test: Test A preemergence; type: in vivo, Ambrosia artemisiifolia
How it was run: as §1

ryegrass, Italian [9] = test: Test A preemergence; type: in vivo, Lolium multiflorum
How it was run: as §1

soybean [10] = test: Test A preemergence; type: in vivo, Glycine max
How it was run: as §1

wheat [11] = test: Test A preemergence; type: in vivo, Triticum aestivum
How it was run: as §1

blackgrass [12] = test: Test A postemergence; type: in vivo, Alopecurus myosuroides
How it was run: as §1

corn [13] = test: Test A postemergence; type: in vivo, Zea mays
How it was run: as §1

foxtail, giant [14] = test: Test A postemergence; type: in vivo, Setaria faberi
How it was run: as §1

goosegrass [15] = test: Test A postemergence; type: in vivo, Eleusine indica
How it was run: as §1

kochia [16] = test: Test A postemergence; type: in vivo, Bassia scoparia
How it was run: as §1

oat, wild [17] = test: Test A postemergence; type: in vivo, Avena fatua
How it was run: as §1

pigweed, palmer [18] = test: Test A postemergence; type: in vivo, Amaranthus palmeri
How it was run: as §1

ragweed [19] = test: Test A postemergence; type: in vivo, Ambrosia artemisiifolia
How it was run: as §1

ryegrass, Italian [20] = test: Test A postemergence; type: in vivo, Lolium multiflorum
How it was run: as §1

soybean [21] = test: Test A postemergence; type: in vivo, Glycine max
How it was run: as §1

wheat [22] = test: Test A postemergence; type: in vivo, Triticum aestivum
How it was run: as §1

galium = test: Test A postemergence; type: in vivo, Galium aparine
How it was run: as §1

horseweed = test: Test A postemergence; type: in vivo, Erigeron canadensis
How it was run: as §1

barnyardgrass = test: Test B flooded paddy test; type: in vivo, Echinochloa crus-galli; settings: 250 g ai/ha, Flood, 13 days, 0 to 100 scale (0 no effect, 100 complete control)
How it was run: (§2)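 Compound is introduced into paddy water covering soil by 3 cm, treating plants that have reached two leaves. Pots are kept flooded at that depth under greenhouse conditions. Assessment at 13 days gives a 0–100 visual control score.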

ducksalad = test: Test B flooded paddy test; type: in vivo, Heteranthera limosa; settings: 250 g ai/ha, Flood, 13 days, 0 to 100 scale (0 no effect, 100 complete control)
How it was run: as §2

rice = test: Test B flooded paddy test; type: in vivo, Oryza sativa; settings: 250 g ai/ha, Flood, 13 days, 0 to 100 scale (0 no effect, 100 complete control)
How it was run: as §2

sedge, umbrella = test: Test B flooded paddy test; type: in vivo, Cyperus difformis; settings: 250 g ai/ha, Flood, 13 days, 0 to 100 scale (0 no effect, 100 complete control)
How it was run: as §2

[23] = 125 g ai/ha, visual injury after 10 days, 0 to 100 scale, 0 is no effect, 100 is complete control
[24] = 500 g ai/ha, 0 to 100 scale (0 no effect, 100 complete control), 10 days
[25] = 125 g ai/ha, postemergence, 10 days, visual injury, 0 to 100 scale (0 no effect, 100 complete control)
[26] = 500 g ai/ha, Postemergence, 0 to 100 scale

Cc1c(C(=O)N2CC(C)Oc3c(Cl)cccc32)cccc1-n1cncn1 (stereo not drawn) [Compound 40]
Plant response rating, Blackgrass (blackgrass [1]; [23]): 0
Plant response rating, Blackgrass (blackgrass [1]; [24]): 0
Plant response rating, Corn (corn [2]; [23]): 0
Plant response rating, Corn (corn [2]; [24]): 0
Plant response rating, Foxtail, Giant (foxtail, giant [3]; [23]): 0
Plant response rating, Foxtail, Giant (foxtail, giant [3]; [24]): 0
Plant response rating, Goosegrass (goosegrass [4]; [23]): 0
Plant response rating, Goosegrass (goosegrass [4]; [24]): 0
Plant response rating, Kochia (kochia [5]; [23]): 0
Plant response rating, Kochia (kochia [5]; [24]): 0
Plant response rating, Oat, Wild (oat, wild [6]; [23]): 0
Plant response rating, Oat, Wild (oat, wild [6]; [24]): 0
Plant response rating, Pigweed, Palmer (pigweed, palmer [7]; [23]): 0
Plant response rating, Pigweed, Palmer (pigweed, palmer [7]; [24]): 0
Plant response rating, Ragweed (ragweed [8]; [23]): 0
Plant response rating, Ragweed (ragweed [8]; [24]): 0
Plant response rating, Ryegrass, Italian (ryegrass, Italian [9]; [23]): 0
Plant response rating, Ryegrass, Italian (ryegrass, Italian [9]; [24]): 0
Plant response rating, Soybean (soybean [10]; [23]): 0
Plant response rating, Soybean (soybean [10]; [24]): 40
Plant response rating, Wheat (wheat [11]; [23]): 0
Plant response rating, Wheat (wheat [11]; [24]): 0
Plant response rating, Blackgrass (blackgrass [12]; [25]): 0
Plant response rating, Blackgrass (blackgrass [12]; [26]): 0
Plant response rating, Corn (corn [13]; [25]): 0
Plant response rating, Corn (corn [13]; [26]): 0
Plant response rating, Foxtail, Giant (foxtail, giant [14]; [25]): 0
Plant response rating, Foxtail, Giant (foxtail, giant [14]; [26]): 0
Plant response rating, Goosegrass (goosegrass [15]; [25]): 0
Plant response rating, Goosegrass (goosegrass [15]; [26]): 0
Plant response rating, Kochia (kochia [16]; [25]): 0
Plant response rating, Kochia (kochia [16]; [26]): 10
Plant response rating, Oat, Wild (oat, wild [17]; [25]): 0
Plant response rating, Oat, Wild (oat, wild [17]; [26]): 0
Plant response rating, Pigweed, Palmer (pigweed, palmer [18]; [25]): 0
Plant response rating, Pigweed, Palmer (pigweed, palmer [18]; [26]): 0
Plant response rating, Ragweed (ragweed [19]; [25]): 0
Plant response rating, Ragweed (ragweed [19]; [26]): 0
Plant response rating, Ryegrass, Italian (ryegrass, Italian [20]; [25]): 0
Plant response rating, Ryegrass, Italian (ryegrass, Italian [20]; [26]): 0
Plant response rating, Soybean (soybean [21]; [25]): 0
Plant response rating, Soybean (soybean [21]; [26]): 20
Plant response rating, Wheat (wheat [22]; [25]): 0
Plant response rating, Wheat (wheat [22]; [26]): 0
Plant response rating, Galium (galium; [25]): 30
Plant response rating, Galium (galium; [26]): 0
Plant response rating, Horseweed (horseweed; [25]): 0
Plant response rating, Horseweed (horseweed; [26]): 0
Plant response rating, Barnyardgrass (barnyardgrass): 0
Plant response rating, Ducksalad (ducksalad): 0
Plant response rating, Rice (rice): 0
Plant response rating, Sedge, Umbrella (sedge, umbrella): 0

Cc1cccc2c1O[C@@H](C)CN2C(=O)c1cc(-n2cncn2)ccc1F [Compound 50]
Plant response rating, Blackgrass (blackgrass [1]; [23]): 40
Plant response rating, Blackgrass (blackgrass [1]; [24]): 80
Plant response rating, Corn (corn [2]; [23]): 0
Plant response rating, Corn (corn [2]; [24]): 0
Plant response rating, Foxtail, Giant (foxtail, giant [3]; [23]): 90
Plant response rating, Foxtail, Giant (foxtail, giant [3]; [24]): 100
Plant response rating, Goosegrass (goosegrass [4]; [23]): 90
Plant response rating, Goosegrass (goosegrass [4]; [24]): 100
Plant response rating, Kochia (kochia [5]; [23]): 0
Plant response rating, Kochia (kochia [5]; [24]): 10
Plant response rating, Oat, Wild (oat, wild [6]; [23]): 20
Plant response rating, Oat, Wild (oat, wild [6]; [24]): 90
Plant response rating, Pigweed, Palmer (pigweed, palmer [7]; [23]): 0
Plant response rating, Pigweed, Palmer (pigweed, palmer [7]; [24]): 100
Plant response rating, Ragweed (ragweed [8]; [23]): 0
Plant response rating, Ragweed (ragweed [8]; [24]): 30
Plant response rating, Ryegrass, Italian (ryegrass, Italian [9]; [23]): 80
Plant response rating, Ryegrass, Italian (ryegrass, Italian [9]; [24]): 90
Plant response rating, Soybean (soybean [10]; [23]): 30
Plant response rating, Soybean (soybean [10]; [24]): 90
Plant response rating, Wheat (wheat [11]; [23]): 0
Plant response rating, Wheat (wheat [11]; [24]): 50
Plant response rating, Blackgrass (blackgrass [12]; [25]): 50
Plant response rating, Blackgrass (blackgrass [12]; [26]): 70
Plant response rating, Corn (corn [13]; [25]): 30
Plant response rating, Corn (corn [13]; [26]): 60
Plant response rating, Foxtail, Giant (foxtail, giant [14]; [25]): 70
Plant response rating, Foxtail, Giant (foxtail, giant [14]; [26]): 90
Plant response rating, Goosegrass (goosegrass [15]; [25]): 50
Plant response rating, Goosegrass (goosegrass [15]; [26]): 90
Plant response rating, Kochia (kochia [16]; [25]): 10
Plant response rating, Kochia (kochia [16]; [26]): 70
Plant response rating, Oat, Wild (oat, wild [17]; [25]): 20
Plant response rating, Oat, Wild (oat, wild [17]; [26]): 50
Plant response rating, Pigweed, Palmer (pigweed, palmer [18]; [25]): 30
Plant response rating, Pigweed, Palmer (pigweed, palmer [18]; [26]): 30
Plant response rating, Ragweed (ragweed [19]; [25]): 20
Plant response rating, Ragweed (ragweed [19]; [26]): 40
Plant response rating, Ryegrass, Italian (ryegrass, Italian [20]; [25]): 50
Plant response rating, Ryegrass, Italian (ryegrass, Italian [20]; [26]): 80
Plant response rating, Soybean (soybean [21]; [25]): 100
Plant response rating, Soybean (soybean [21]; [26]): 100
Plant response rating, Wheat (wheat [22]; [25]): 40
Plant response rating, Wheat (wheat [22]; [26]): 70
Plant response rating, Galium (galium; [25]): 60
Plant response rating, Galium (galium; [26]): 100
Plant response rating, Horseweed (horseweed; [25]): 0
Plant response rating, Horseweed (horseweed; [26]): 10
Plant response rating, Barnyardgrass (barnyardgrass): 0
Plant response rating, Ducksalad (ducksalad): 0
Plant response rating, Rice (rice): 0
Plant response rating, Sedge, Umbrella (sedge, umbrella): 0

Cc1ncn(-c2cccc(C(=O)N3C[C@H](C)Oc4c(C)cccc43)c2)n1 [Compound 51]
Plant response rating, Blackgrass (blackgrass [1]; [23]): 30
Plant response rating, Blackgrass (blackgrass [1]; [24]): 60
Plant response rating, Corn (corn [2]; [23]): 20
Plant response rating, Corn (corn [2]; [24]): 50
Plant response rating, Foxtail, Giant (foxtail, giant [3]; [23]): 100
Plant response rating, Foxtail, Giant (foxtail, giant [3]; [24]): 100
Plant response rating, Goosegrass (goosegrass [4]; [23]): 90
Plant response rating, Goosegrass (goosegrass [4]; [24]): 100
Plant response rating, Kochia (kochia [5]; [23]): 70
Plant response rating, Kochia (kochia [5]; [24]): 90
Plant response rating, Oat, Wild (oat, wild [6]; [23]): 30
Plant response rating, Oat, Wild (oat, wild [6]; [24]): 90
Plant response rating, Pigweed, Palmer (pigweed, palmer [7]; [23]): 0
Plant response rating, Pigweed, Palmer (pigweed, palmer [7]; [24]): 60
Plant response rating, Ragweed (ragweed [8]; [23]): 0
Plant response rating, Ragweed (ragweed [8]; [24]): 0
Plant response rating, Ryegrass, Italian (ryegrass, Italian [9]; [23]): 90
Plant response rating, Ryegrass, Italian (ryegrass, Italian [9]; [24]): 100
Plant response rating, Soybean (soybean [10]; [23]): 90
Plant response rating, Soybean (soybean [10]; [24]): 100
Plant response rating, Wheat (wheat [11]; [23]): 20
Plant response rating, Wheat (wheat [11]; [24]): 60
Plant response rating, Blackgrass (blackgrass [12]; [25]): 40
Plant response rating, Blackgrass (blackgrass [12]; [26]): 50
Plant response rating, Corn (corn [13]; [25]): 30
Plant response rating, Corn (corn [13]; [26]): 50
Plant response rating, Foxtail, Giant (foxtail, giant [14]; [25]): 90
Plant response rating, Foxtail, Giant (foxtail, giant [14]; [26]): 90
Plant response rating, Goosegrass (goosegrass [15]; [25]): 40
Plant response rating, Goosegrass (goosegrass [15]; [26]): 80
Plant response rating, Kochia (kochia [16]; [25]): 60
Plant response rating, Kochia (kochia [16]; [26]): 70
Plant response rating, Oat, Wild (oat, wild [17]; [25]): 30
Plant response rating, Oat, Wild (oat, wild [17]; [26]): 70
Plant response rating, Pigweed, Palmer (pigweed, palmer [18]; [25]): 20
Plant response rating, Pigweed, Palmer (pigweed, palmer [18]; [26]): 50
Plant response rating, Ragweed (ragweed [19]; [25]): 0
Plant response rating, Ragweed (ragweed [19]; [26]): 0
Plant response rating, Ryegrass, Italian (ryegrass, Italian [20]; [25]): 70
Plant response rating, Ryegrass, Italian (ryegrass, Italian [20]; [26]): 90
Plant response rating, Soybean (soybean [21]; [25]): 100
Plant response rating, Soybean (soybean [21]; [26]): 100
Plant response rating, Wheat (wheat [22]; [25]): 30
Plant response rating, Wheat (wheat [22]; [26]): 80
Plant response rating, Galium (galium; [25]): 80
Plant response rating, Galium (galium; [26]): 100
Plant response rating, Horseweed (horseweed; [25]): 0
Plant response rating, Horseweed (horseweed; [26]): 20
Plant response rating, Barnyardgrass (barnyardgrass): 25
Plant response rating, Ducksalad (ducksalad): 65
Plant response rating, Rice (rice): 15
Plant response rating, Sedge, Umbrella (sedge, umbrella): 80
